In paper PMC3197605, “Expression, Purification and Characterization of Arginase from Helicobacter pylori in Its Apo Form” (PLoS ONE, 2011) one finds IC50 data, which are given here for 2 compounds.

SMILES strings stand for the structures. pIC50: −log10 of the molar value. Like-named read-outs stand apart in the source and are kept apart here.

The experiment concerns the target T1, arginase (RocF) (Helicobacter pylori, UniProt O25949).
T1 construct: gene HP_1399; RocF with C-terminal His6 tag, apo form, expressed in E. coli BL21 (DE3)
The experiment in a line: colorimetric arginase assay (ninhydrin detection of L-ornithine), purified apo-RocF heat-activated with Co2+, pH […]. The class given is biochemical.

T1 sequence (O25949 entry or part of it): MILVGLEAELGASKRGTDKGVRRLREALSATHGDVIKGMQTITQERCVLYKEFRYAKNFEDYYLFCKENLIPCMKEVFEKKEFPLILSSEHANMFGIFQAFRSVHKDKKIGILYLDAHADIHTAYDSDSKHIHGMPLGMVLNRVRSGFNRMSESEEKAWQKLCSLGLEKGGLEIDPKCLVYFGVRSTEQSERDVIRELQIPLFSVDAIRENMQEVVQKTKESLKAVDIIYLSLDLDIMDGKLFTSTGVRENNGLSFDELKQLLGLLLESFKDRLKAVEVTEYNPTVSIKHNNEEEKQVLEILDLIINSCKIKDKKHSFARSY

Take `N[C@@H](CSCCB(O)O)C(=O)O` [BEC, S-(2-boronoethyl)-L-Cysteine]: the pIC50 is 3.00.

Turning to `N=C(NO)NCC[C@H](N)C(=O)O` [nor-NOHA], the pIC50 (read-out: IC50) was 3.30.
